Data: patent US20210244686A1, “Novel Systems And Methods For The Therapeutic Use of Cannabinoids or Cannabinoid Analogs to Increase The Lipid Order of Cholesterol Containing Cell Membranes” (The Regents of the University of Colorado a body corporate, priority 2018, published 2021)

Key:
Format in all cases: cell-based, human
[1] = test system: SK-N-BE(2) cells; assay: Subcellular fractionation and LC-MS of CBD distribution; settings: 24 hrs
Experimental: In a metabolomics survey of SK-N-BE(2) cells exposed to CBD, the present inventors were able to determine that CBD is concentrated in insoluble components […]. As a result, the inventors designed and executed a subcellular fractionation method to isolate nuclear membrane, plasma membrane, and ER membrane fractions.
Extraction of cholesterol, precursors, free fatty acids, cholesteryl esters, and phospho lipids were performed in the following manner. SK-N-BE(2) cells in 10 cm dishes were washed with 10 mL PBS twice and then cells were scraped and pelleted at 400 rcf for 2 minutes. […]
Analytes were resolved over an ACQUITY HSS T3 column (2.1×150 mm, 1.8 μm particle size (Waters, Mass., USA) using an aqueous phase (A) of 25% acetonitrile and 5 mM ammonium acetate and a mobile phase (B) of 90% isopropanol, 10% acetonitrile and 5 mM ammonium acetate. The column was equilibrated at 30% B, and upon injection of […] of extract, samples were eluted from the column using the solvent gradient: 0-9 min 30-100% B and 0.325 mL/min; hold at 100% B for 3 min at 0.3 mL/min, and then decrease to 30% over 0.5 min at 0.4 ml/min, followed by a re-equilibration hold at 30% B for 2.5 minutes at 0.4 ml/min. […] Samples were analyzed in randomized order with a technical mixture injected incrementally to qualify instrument performance. […]

[2] = test system: endoplasmic reticulum in SKNBE2 and HaCaT keratinocyte cells; assay: Confocal microscopy of rhodamine-glibenclamide staining, ER structure
Experimental: FIG. 16. Rhodamine-glibenclamide staining in live cells is visualized by confocal microscopy in live cells. ER structure is perturbed after 2 hours of exposure to CBD and o-1602, but not for o-1821 exposure.

[3] = test system: SK-N-BE(2) and HaCaT keratinocyte cell lines; assay: FRET biosensor profiling of CBD response; settings: CBD dose and time survey
Experimental: To efficiently design the multi-omics experiments, the present inventors exposed the neuroblastoma cell line SK-N-BE(2) to escalating doses of CBD at 24, 48, and 72 hours and determined the EC50 of toxicity of CBD to be greatest at 72 hours and at an approximate concentration of 20 μM (FIG. 1 B). To maximize the efficient use of the inventor's multi-omic resources, a large dose and time survey of the CBD response was conducted in a panel of transgenic SK-N-BE(2) and HaCaT keratinocyte cell lines, each expressing a genetically encoded förster resonance energy transfer (FRET) biosensor gene capable of reporting the activity of a cellular effector molecule/activity including, but not limited to: AMP kinase activity, Erk kinase activity, cytosolic ATP, glucose, lactate, pyruvate & glutamine, Ca^2+ in the ER & Cytosol, mTor kinase activity & TACE protease activity. […] The biosensor activity profiles as a function of CBD dose and time (FIGS. 9A-C) were analyzed for the EC50 of each biosensor activity at each time (FIG. 10). The result of these efforts outlined that the most robust dose of CBD for use in multi-omic experiments is 20 μM and that the kinetic profile of the CBD response begins in hours and persists for days.
Stable transgenic biosensor expressing cell lines were made in HaCaT and SK-N-BE(2) cells. […]

For `C=C(C)[C@@H]1CCC(C)=C[C@H]1c1c(O)cc(CCCCC)cc1O` [CBD, cannabidiol], the “CBD incorporated into ER and nuclear membranes” value [1] was “detectable amount”, the “alteration of the structure of the endoplasmic reticulum” value ([2]; SKNBE2 and HaCaT keratinocyte cells) was “dramatically alters the structure of the endoplasmic reticulum” and the ER structure ([2]; after 2 hours of exposure, live cells) was “perturbed”. The “biosensor activities across panel” value [3] was “causes modulation of all biochemical pathways that were probed”.
